Assay results from patent US20090209485A1, “MODULATING ANGIOGENESIS WITH NOD FACTORS SUCH AS GLUCOSAMINE OLIGOSACCHARIDES” (priority 2005, published 2009).

Tests used:
Type in all cases: cell-based
rat aorta [1] = test: Rat aorta angiogenesis assay (vessel outgrowth from aorta fragments in fibrin gel)
Procedure: Thoracic aortas were excised from three to nine month-old female Fischer rats, rinsed in Hanks balanced salt solution containing 2.5 μg/ml amphotericin B (Sigma, St Louis, Mo.), cleaned of periadventitial fibroadipose tissue and cross-sectioned at 1 mm intervals. The fragments were freed of residual clots. Dissecting and sectioning of the vessels was performed with the aid of a dissecting microscope.
Assays were performed in 48-well culture plates (Costar, Cambridge, Mass.). Five hundred microlitres of 3 mg/ml fibrinogen (bovine plasma, Calbiochem, La Jolla, Calif.) in serum free-Medium 199 (GibcoBRL) was added to each well with 5 μg/ml of aprotinin (Sigma) to prevent fibrinolysis by the vessel fragments. One vessel fragment was placed in the centre of the well and 15 μl of thrombin (50 NIH U/ml in 0.15M NaCl: bovine plasma: Sigma St Louis, Mo.) was added to the well and mixed rapidly with the fibrinogen. Fibrin gel formation usually occurred within 30 seconds and ideally the vessel fragment remained suspended in the centre of the gel. After gel formation, 0.5 ml/well of Medium M199 supplemented with 20% fetal calf serum (FCS) (Sigma), 0.1% 6-aminocaproic acid, 1% L-glutamine, 1%-amphotericin B and 0.6% gentamycin was added. The substances tested for angiogenesis modulating activity (compounds PI-88, 1, 2, 3, 4, 5, 6 and 7) were dissolved in 50% acetonitrile in ultrapure water and diluted at least 1:100 in the supplemented medium M199. Immediately after embedding of vessel fragment in the fibrin gels, 0.5 ml of medium containing the test substance was added to each well and each treatment was performed in six wells. Control cultures received medium without the test substance. Vessels were cultured at 37° C. in 5% CO2 in air for five days and the medium was changed on day four. Vessel growth was quantified manually under 40× magnification on day five, with growth being estimated as the percentage of the field (×40) around the vessel fragment that was occupied by vessel outgrowths.

[2] = test system: HUVEC (human umbilical vein endothelial cells); test: HUVEC assay: tube formation on matrigel; conditions: 100 μg/ml, overnight incubation; for Inhibition of HUVEC cell “tiling” and/or change in tube morphology+/−: Matrigel + HUVEC
Procedure: HUVEC (human umbilical vein endothelial cells) form tubes on a matrigel support. The tubes form a “paving tile” formation after overnight incubation. Nod factor and derivative thereof were added at 100 μg/ml to determine if they inhibited tube formation and/or caused a change in tube morphology.

rat aorta [3] = test: Rat aorta angiogenesis assay (vessel outgrowth from aorta fragments in fibrin gel); conditions: Table 4, day 6, concentration not given
Mouse Aorta = test: Mouse aorta angiogenesis assay (vessel outgrowth from aorta fragments in fibrin gel); conditions: Table 5
Procedure: Thoracic aortas were excised from 6-8 week old female C57 BL/6 mice, rinsed in Hanks balanced salt solution containing 2.5 μg/ml amphotericin B (Sigma, St Louis, Mo.) cleaned of periadventitial fibroadipose tissue and cross-sectioned at 1 mm intervals. The fragments were freed of residual clots. Dissecting and sectioning of the vessels was performed with the aid of a dissecting microscope. Assays were performed in 48-well culture plates (Costar, Cambridge, Mass.). Five hundred microlitres of 3 mg/ml fibrinogen (bovine plasma, Calbiochem, La Jolla, Calif.) in serum free-Medium 199 (GibcoBRL)) was added to each well with 5 ug/ml of aprotinin (Sigma) to prevent fibrinolysis by the vessel fragments. One vessel fragment was placed in the centre of the well and 15 ul of thrombin (50 NIH U/ml in 0.15M NaCl: EC 3.4.21.5 bovine plasma: Sigma St Louis, Mo.) was added to the well and mixed rapidly with the fibrinogen. Fibrin gel formation usually occurred within 30 seconds and ideally the vessel fragment remained suspended in the centre of the gel. […] Vessel growth was quantified manually under 40× magnification on day 7, with growth being estimated as the percentage of the field (×40) around the vessel fragment that was occupied by vessel outgrowths (see Table 5). • ^§Brown, K. J., Maynes, S. F., Bezos, A., Maguire, D. J., Ford, M. D., & Parish, C. […]

[4] = Table 3, Assay 2, testing at 100 μg/mL, '+' = growth above control
[5] = Table 3, Assay 3, testing at 100 μg/mL, '+' = growth above control
[6] = Table 1, 10 μg/mL, % of field occupied by vessel outgrowths, control 82 ± 3.2
[7] = Table 1, 100 μg/mL, % of field around vessel fragment occupied by vessel outgrowths, control 82 ± 3.2
[8] = Table 3, Assay 1, testing at 100 μg/mL
[9] = Table 3, Assay 4, testing at 10 μg/mL
[10] = Table 3, Assay 5, testing at 10 μg/mL
[11] = Table 4, Assay 1, day 5, control growth 27%, concentration not given
[12] = Table 4, Assay 2, day 5, control growth 48%, concentration not given
[13] = Table 1, 10 μg/mL, '+' = growth above control
[14] = Table 1, 100 μg/mL, '+' = growth above control

**Q.** For `CC(=O)N[C@H]1[C@H](O[C@H]2[C@H](O)[C@@H](NC(C)=O)[C@H](O[C@H]3[C@H](O)[C@@H](NC(C)=O)[C@H](O[C@H]4[C@H](O)[C@@H](NC(C)=O)C(O)O[C@@H]4CO[C@@H]4O[C@@H](C)[C@@H](O)[C@@H](O)[C@@H]4O)O[C@@H]3CO)O[C@@H]2CO)O[C@H](CO)[C@@H](O[C@@H]2O[C@H](CO)[C@@H](O)[C@H](O)[C@H]2N=[N+]=[N-])[C@@H]1O` (some centres unmarked) [Compound 26], which “% Inhibition” value (rat aorta [1]; [4]) is on record?
**A.** Its value is 3%.

**Q.** What about the “% Inhibition” value (rat aorta [1]; [5]) of the same compound?
**A.** The value was 15%.

**Q.** For `CO[C@@H]1[C@H](OC[C@H]2OC(O)[C@H](NC(C)=O)[C@@H](O)[C@@H]2O[C@@H]2O[C@H](CO)[C@@H](O[C@@H]3O[C@H](CO)[C@@H](O[C@@H]4O[C@H](CO)[C@@H](O[C@@H]5O[C@H](CO)[C@@H](O)[C@H](O)[C@H]5N)[C@H](O)[C@H]4NC(C)=O)[C@H](O)[C@H]3NC(C)=O)[C@H](O)[C@H]2NC(C)=O)O[C@@H](C)[C@@H](O)[C@H]1O` (some centres unmarked) [Compound 7], which “Inhibition of HUVEC cell “tiling” and/or change in tube morphology+/−” value [2] is on record?
**A.** Its value is “Yes”.

**Q.** What about the “% Growth” value (rat aorta [1]; [6]) of the same compound?
**A.** The value was 94 ± 4.0%.

**Q.** And the “% Growth” value (rat aorta [1]; [7])?
**A.** Its value is 90 ± 6.3%.

**Q.** With `CC(=O)N[C@H]1C(O)O[C@H](CO)[C@@H](O[C@@H]2O[C@H](CO)[C@@H](O)[C@H](O)[C@H]2N)[C@@H]1O` (some centres unmarked) [Compound 22] as the compound, how does the “% Inhibition” value (rat aorta [3]; Assay 2, control growth 63%) read?
**A.** The value was 0%.

**Q.** What about the “% Inhibition” value (rat aorta [1]; [8]) of the same compound?
**A.** Its value is 5%.

**Q.** What about the “% Inhibition” value (rat aorta [1]; [9]) of the same compound?
**A.** Its value is 24%.

**Q.** What about the “% Inhibition” value (rat aorta [1]; [10]) of the same compound?
**A.** Its value is 16%.

**Q.** And the “% Inhibition” value (rat aorta [1]; [11])?
**A.** Its value is 33%.

**Q.** What about the “% Inhibition” value (rat aorta [1]; [12]) of the same compound?
**A.** Its value is 6%.

**Q.** Which “Inhibition of HUVEC cell “tiling” and/or change in tube morphology+/−” value [2] does the source give for `CC(=O)N[C@H]1[C@H](O[C@H]2[C@H](O)[C@@H](NC(C)=O)[C@H](O[C@H]3[C@H](O)[C@@H](NC(C)=O)[C@H](O[C@H]4[C@H](O)[C@@H](NC(C)=O)C(O)O[C@@H]4CO[C@@H]4O[C@@H](C)[C@@H](O)[C@@H](O)[C@@H]4O)O[C@@H]3CO)O[C@@H]2CO)O[C@H](CO)[C@@H](O[C@@H]2O[C@H](CO)[C@@H](O)[C@H](O)[C@H]2N)[C@@H]1O` (some centres unmarked) [Compound 6] here?
**A.** Its value is “Yes”.

**Q.** And the “% Growth” value (rat aorta [1]; [6])?
**A.** Its value is 73 ± 7.5%.

**Q.** And the “% Inhibit.” value (rat aorta [1]; [13])?
**A.** Its value is 11%.

**Q.** And the “% Growth” value (rat aorta [1]; [7])?
**A.** Its value is 53 ± 4.8%.

**Q.** And the “% Inhibit.” value (rat aorta [1]; [14])?
**A.** Its value is 35%.

**Q.** Which results are given for PI-88 [reference compound]?
**A.** Inhibition of HUVEC cell “tiling” and/or change in tube morphology+/− [2]: Yes; effect on HUVEC tube formation ([2]; matrigel): affected tube formation; % Inhibition (rat aorta [3]; Assay 1, control growth 43%): 80%; % Inhibition (rat aorta [3]; Assay 2, control growth 63%): 70%; % Inhibition (Mouse Aorta; 10 μg/ml): 30%; % Inhibition (Mouse Aorta; 100 μg/ml): 93%; % Growth (rat aorta [1]; [7]): 25 ± 5.4%; % Inhibit. (rat aorta [1]; [14]): 69%; % Inhibit. (rat aorta [1]; Table 2, 100 μg/mL): 47%; % Growth (rat aorta [1]; Table 2, 100 μg/mL, control 74 ± 3.8): 39 ± 6.1%; % Inhibition (rat aorta [1]; [8]): 82%; % Inhibition (rat aorta [1]; [4]): 77%; % Inhibition (rat aorta [1]; [5]): 68%; % Inhibition (rat aorta [1]; [9]): 18%; % Inhibition (rat aorta [1]; [10]): 14%; % Inhibition (rat aorta [1]; [11]): 91%; % Inhibition (rat aorta [1]; Table 4, Assay 1, day 7, control growth 68%, concentration not given): 77%; % Inhibition (rat aorta [1]; [12]): 66%; % Inhibition (rat aorta [1]; Table 4, Assay 2, day 7, control growth 83%, concentration not given): 68%

**Q.** What does the source list for `CC(=O)N[C@H]1[C@H](O[C@H]2[C@H](O)[C@@H](NC(C)=O)[C@H](O[C@H]3[C@H](O)[C@@H](NC(C)=O)C(O)O[C@@H]3CO[C@@H]3O[C@@H](C)[C@@H](O)[C@@H](O)[C@@H]3O)O[C@@H]2CO)O[C@H](CO)[C@@H](O[C@@H]2O[C@H](CO)[C@@H](O[C@@H]3O[C@H](CO)[C@@H](O)[C@H](O)[C@H]3NC(=O)Cc3ccccc3)[C@H](O)[C@H]2NC(C)=O)[C@@H]1O` (some centres unmarked) [Compound 24]?
**A.** % Inhibition (rat aorta [3]; Assay 2, control growth 63%): 8%; % Inhibition (rat aorta [1]; [9]): 3%; % Inhibition (rat aorta [1]; [10]): 1%; % Inhibition (rat aorta [1]; [12]): 6%

**Q.** With `CC(=O)N[C@H]1[C@H](O[C@H]2[C@H](O)[C@@H](NC(C)=O)[C@H](O[C@H]3[C@H](O)[C@@H](NC(C)=O)C(O)O[C@@H]3COS(=O)(=O)O)O[C@@H]2CO)O[C@H](CO)[C@@H](O[C@@H]2O[C@H](CO)[C@@H](O)[C@H](O)[C@H]2N)[C@@H]1O` (some centres unmarked) [Compound 21] as the compound, how does the “% Inhibition” value (rat aorta [1]; [8]) read?
**A.** The value was 74%.

**Q.** And the “% Inhibition” value (rat aorta [1]; [4])?
**A.** Its value is 41%.

**Q.** And the “% Inhibition” value (rat aorta [1]; [5])?
**A.** Its value is 40%.

**Q.** And the “% Inhibition” value (rat aorta [1]; [9])?
**A.** Its value is 24%.

**Q.** And the “% Inhibition” value (rat aorta [1]; [10])?
**A.** The value was 33%.

**Q.** For `CCCCCCC=CCCCOc1cccc(C(=O)N[C@H]2[C@H](O[C@H]3[C@H](O)[C@@H](NC(C)=O)[C@H](O[C@H]4[C@H](O)[C@@H](NC(C)=O)[C@H](O[C@H]5[C@H](O)[C@@H](NC(C)=O)[C@H](O[C@H]6[C@H](O)[C@@H](NC(C)=O)C(O)O[C@@H]6CO[C@@H]6O[C@@H](C)[C@@H](O)[C@@H](O)[C@@H]6O)O[C@@H]5CO)O[C@@H]4CO)O[C@@H]3CO)O[C@H](CO)[C@@H](O)[C@@H]2O)c1` (some centres unmarked) [Compound 25], which “% Inhibition” value (rat aorta [1]; [4]) is on record?
**A.** The value was 76%.

**Q.** What about the “% Inhibition” value (rat aorta [1]; [5]) of the same compound?
**A.** The value was 73%.

**Q.** And the “% Inhibition” value (rat aorta [1]; [9])?
**A.** Its value is 24%.

**Q.** And the “% Inhibition” value (rat aorta [1]; [10])?
**A.** Its value is 21%.

**Q.** And the “% Inhibition” value (rat aorta [1]; Table 3, Assay 6, testing at 1.0 μg/mL)?
**A.** Its value is 8%.

**Q.** And the “% Inhibition” value (rat aorta [1]; Table 3, Assay 7, testing at 1.0 μg/mL)?
**A.** Its value is 3%.

**Q.** What does the source list for `CC(=O)N[C@H]1[C@H](O[C@H]2[C@H](O)[C@@H](NC(C)=O)[C@H](O[C@H]3[C@H](O)[C@@H](NC(C)=O)[C@H](O[C@H]4[C@H](O)[C@@H](NC(C)=O)C(O)O[C@@H]4CO)O[C@@H]3CO)O[C@@H]2CO)O[C@H](CO)[C@@H](O[C@@H]2O[C@H](CO)[C@@H](O)[C@H](O)[C@H]2N)[C@@H]1O` (some centres unmarked) [Compound 1]?
**A.** Inhibition of HUVEC cell “tiling” and/or change in tube morphology+/− [2]: Yes; % Growth (rat aorta [1]; [6]): 80 ± 8.4%; % Inhibit. (rat aorta [1]; [13]): 2.4%; % Growth (rat aorta [1]; [7]): 53 ± 8.0%; % Inhibit. (rat aorta [1]; [14]): 35%

**Q.** What does the source list for `CC(=O)N[C@H]1[C@H](O[C@H]2[C@H](O)[C@@H](NC(C)=O)[C@H](O[C@H]3[C@H](O)[C@@H](NC(C)=O)C(O)O[C@@H]3CO)O[C@@H]2CO)O[C@H](CO)[C@@H](O[C@@H]2O[C@H](CO)[C@@H](O)[C@H](O)[C@H]2N)[C@@H]1O` (some centres unmarked) [Compound 23]?
**A.** % Inhibition (rat aorta [1]; [4]): 66%; % Inhibition (rat aorta [1]; [5]): 29%; % Inhibition (rat aorta [1]; [9]): 14%; % Inhibition (rat aorta [1]; [10]): 24%
